Assay results: patent US12059422B2 (MEI Pharma, Inc., priority 2011, dated 2024)

Experiments:
PI3K alpha = target: T1, PI3K alpha (Homo sapiens, UniProt P42336); assay: Luciferase-based luminescence assay (KinaseGlo), PI3K alpha enzymatic activity; assay type: biochemical; conditions: inhibition of enzymatic activity, 25 μM ATP, read-out: IC50 p110α
T1 construct: purchased Invitrogen Corp., Carlsbad, CA, USA
Procedure: PI3K catalyzes the conversion of phosphatidylinositol-4,5-bisphosphate (PIP2) and ATP to phosphatidylinositol-3,4,5-trisphosphate (PIP3) and ADP. For all assays, the reaction buffer comprised 50 mM HEPES, pH 7.5, 3 mM MgCl2, 1 mM EGTA, 100 mM NaCl, 0.03% CHAPS and 2 mM DTT. Compounds for testing were dissolved and serially diluted in 100% DMSO (total of 10 concentrations), then diluted 1:25 in reaction buffer.
PI3K alpha and PI3K delta enzymatic activity was determined by measuring the amount of ATP consumed following the kinase reaction using a luciferase-based luminescence assay (KinaseGlo®, Promega Corp., Madison, WI, USA). PI3K enzyme solutions were prepared by diluting PI3K alpha (Invitrogen Corp., Carlsbad, CA, USA) or PI3K delta (Millipore, Billerica, MA, USA) in reaction buffer, to 4× the final assay concentration (final concentrations of enzymes were 1.65 nM and 6.86 nM for PI3K alpha and PI3K delta, respectively). A substrate solution was prepared by mixing PIP2 and ATP in reaction buffer at 2× the final assay concentration (final concentrations were 50 μM and 25 μM for PIP2 and ATP respectively). 2.5 μL each of the compound and kinase mixtures were added to individual wells of white low volume 384-well assay plates and mixed by shaking. The reactions were started by adding 5 μL of substrate mixture per well and shaking. The assay plates were covered and reactions were allowed to proceed for 1 hour (PI3K alpha) or 2 hours (PI3K delta), after which 10 μL of Kinase Glo® reagent was added. The plates were briefly centrifuged and incubated for 10 minutes, after which luminescence was measured using a FlexStation plate reader (Molecular Devices, Sunnyvale, CA, USA). IC50 values were determined by curve fitting using Graphpad Prism software (Graphpad Software, La Jolla, CA, USA).

mTOR = mTOR (Homo sapiens, UniProt P42345); assay: mTOR inhibition (Table 1); assay type: biochemical; conditions: Table 1, no method described
PI3Kδ = target: T2, PI3Kδ (Homo sapiens, UniProt O00329); assay: ELISA assay for PI3Kδ: sandwich ELISA, phosphorylation of AKT (Thr308) in Raji cells; assay type: cell-based; conditions: for IC50: cellular, pAKT (Thr308), Raji cells, anti-Human IgM stimulation, read-out: IC50 p110δ; for α/δ ratio / β/δ ratio / γ/δ ratio: ratio of cellular IC50 values, Table 2
T2 construct: endogenous in cells; host or cells: Raji (ATCC #CCL-86)
Procedure: Cellular PI3Kδ activity was determined by measuring the phosphorylation of AKT (Thr308) using a sandwich enzyme-linked immunosorbant assay (ELISA). Raji (Burkitt's Lymphoma) cells were obtained from ATCC (ATCC #CCL-86). Phosphate buffer saline (PBS) contained 2.7 M NaCl, 54 mM KCl, 86 mM […] (dibasic, anhydrous), and 28 mM […] (monobasic, anhydrous) at pH 7.2. Wash buffer contained PBS supplemented with 0.05% Tween-20. Blocking buffer contained wash buffer supplemented with 1% BSA. A 10× stimulation mixture contained 5 μg/mL anti-Human IgM antibody (Sigma #12386) diluted in serum-free RPMI medium (CellGro #CV-10-040-CV). Compounds for testing were dissolved and serially diluted in 100% DMSO (total of 10 concentrations), and then diluted in serum-free RPMI to 5×final assay concentration.
Raji cells were subcultured in RPMI medium supplemented with 10% fetal bovine serum, 100 IU/mL penicillin, 100 μg/mL streptomycin, and 1×MEM non-essential amino acids. Sandwich ELISA plates were prepared by coating 96-well assay plates (Pierce #15042) with 100 μL/well capture antibody (Cell Signaling Technology #7142 or 7144) diluted in PBS. Plates were incubated overnight at 4° C., then washed with wash buffer, after which 200 μL/well blocking buffer was added to the plates and incubated at room temperature for at least 2 hrs. Raji cells were resuspended in serum-free RPMI medium and seeded into V-bottom, 2-mL 96-well blocks (Corning #3961) at 10^6 cells/well, then incubated for 2 hrs in a 37° C., 5% CO2 incubator. Compound treatment was performed by adding the 5× compound mixture to the cells and incubating for 2 hrs at 37° C., 5% CO2, after which the 10× stimulation mixture was added to the plates and incubated for 30 min at 37° C., 5% CO2. Cells were pelleted by centrifuging plates at 1500 RPM for 5 min at room temperature. Media was carefully removed and cells were lysed by adding 100 μL/well cell lysis buffer (Cell Signaling Technology #9803) supplemented with protease and phosphatase inhibitors (Thermo Fisher #78443). Plates were incubated on ice for 30 min, then the lysates (80 μL for pAKT^T308, 10 μL for total AKT) were transferred to prepared assay plates and incubated at 4° C. overnight. After washing plates with wash buffer, 100 μL/well detection antibody (Cell Signaling Technology #7142 or 7144) diluted in blocking buffer was added to the plates and incubated for 1 hr at 37° C. Plates were washed and 100 μL/well of HRP-conjugated secondary antibody (Cell Signaling Technology #7142 or 7144) diluted in blocking buffer was added to plates and incubated for 1 hr at room temperature. Plates were washed with wash buffer and 100 μL/well of luminescent substrate was added to plates. After 1 min on a plate shaker at medium speed, luminescence was read on a Wallac Victor2 plate reader. IC50 values were determined by curve fitting using a Collaborative Drug Discovery database (www.collaborativedrug.com).

T2 sequence (O00329 whole entry): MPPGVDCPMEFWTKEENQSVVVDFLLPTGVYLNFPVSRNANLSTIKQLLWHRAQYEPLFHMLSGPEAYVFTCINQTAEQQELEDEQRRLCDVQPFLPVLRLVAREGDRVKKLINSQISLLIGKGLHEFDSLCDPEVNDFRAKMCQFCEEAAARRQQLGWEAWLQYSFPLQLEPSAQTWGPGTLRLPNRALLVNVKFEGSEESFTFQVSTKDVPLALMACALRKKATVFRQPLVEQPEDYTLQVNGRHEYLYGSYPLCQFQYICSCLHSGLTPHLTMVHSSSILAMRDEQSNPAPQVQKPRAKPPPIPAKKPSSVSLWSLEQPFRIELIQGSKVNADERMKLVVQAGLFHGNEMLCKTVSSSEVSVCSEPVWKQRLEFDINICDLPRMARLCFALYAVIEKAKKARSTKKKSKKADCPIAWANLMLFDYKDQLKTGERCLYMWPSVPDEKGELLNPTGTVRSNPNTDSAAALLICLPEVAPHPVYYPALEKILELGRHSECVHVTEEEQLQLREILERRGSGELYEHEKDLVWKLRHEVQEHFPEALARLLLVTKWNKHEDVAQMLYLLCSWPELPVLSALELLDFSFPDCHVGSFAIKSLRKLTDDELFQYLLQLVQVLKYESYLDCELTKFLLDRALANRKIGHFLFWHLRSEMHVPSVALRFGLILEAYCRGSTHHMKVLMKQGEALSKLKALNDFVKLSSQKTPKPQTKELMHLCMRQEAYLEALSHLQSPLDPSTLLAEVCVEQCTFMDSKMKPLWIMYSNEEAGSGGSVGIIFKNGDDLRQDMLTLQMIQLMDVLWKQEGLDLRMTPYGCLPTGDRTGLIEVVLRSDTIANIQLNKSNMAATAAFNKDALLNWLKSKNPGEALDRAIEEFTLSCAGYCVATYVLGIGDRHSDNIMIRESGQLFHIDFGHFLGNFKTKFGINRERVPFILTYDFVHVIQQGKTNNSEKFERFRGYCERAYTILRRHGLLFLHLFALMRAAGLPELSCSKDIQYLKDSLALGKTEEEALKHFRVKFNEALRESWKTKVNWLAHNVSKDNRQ
T2 sequence (P27986 whole entry partner): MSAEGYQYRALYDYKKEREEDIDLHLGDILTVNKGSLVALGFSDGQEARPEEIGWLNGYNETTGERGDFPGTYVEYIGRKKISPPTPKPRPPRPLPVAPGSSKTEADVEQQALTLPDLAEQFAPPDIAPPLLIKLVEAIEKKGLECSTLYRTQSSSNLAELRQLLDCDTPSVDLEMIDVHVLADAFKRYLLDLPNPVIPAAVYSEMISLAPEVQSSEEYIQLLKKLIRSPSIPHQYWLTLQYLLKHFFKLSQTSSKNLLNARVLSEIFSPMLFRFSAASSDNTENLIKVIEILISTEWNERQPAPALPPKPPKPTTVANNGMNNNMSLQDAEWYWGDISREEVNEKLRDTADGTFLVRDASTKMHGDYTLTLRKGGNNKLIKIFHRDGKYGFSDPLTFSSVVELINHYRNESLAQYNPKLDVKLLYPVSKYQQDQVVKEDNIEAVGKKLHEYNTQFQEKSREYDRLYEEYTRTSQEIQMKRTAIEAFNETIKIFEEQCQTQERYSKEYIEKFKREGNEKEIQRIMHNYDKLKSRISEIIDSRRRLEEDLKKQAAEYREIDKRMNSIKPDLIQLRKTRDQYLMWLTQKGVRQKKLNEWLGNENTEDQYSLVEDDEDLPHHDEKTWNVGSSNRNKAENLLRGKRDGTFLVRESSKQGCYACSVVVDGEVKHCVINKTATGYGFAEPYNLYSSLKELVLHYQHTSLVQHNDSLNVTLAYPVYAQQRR
T1 sequence (P42336 whole entry, species assumed): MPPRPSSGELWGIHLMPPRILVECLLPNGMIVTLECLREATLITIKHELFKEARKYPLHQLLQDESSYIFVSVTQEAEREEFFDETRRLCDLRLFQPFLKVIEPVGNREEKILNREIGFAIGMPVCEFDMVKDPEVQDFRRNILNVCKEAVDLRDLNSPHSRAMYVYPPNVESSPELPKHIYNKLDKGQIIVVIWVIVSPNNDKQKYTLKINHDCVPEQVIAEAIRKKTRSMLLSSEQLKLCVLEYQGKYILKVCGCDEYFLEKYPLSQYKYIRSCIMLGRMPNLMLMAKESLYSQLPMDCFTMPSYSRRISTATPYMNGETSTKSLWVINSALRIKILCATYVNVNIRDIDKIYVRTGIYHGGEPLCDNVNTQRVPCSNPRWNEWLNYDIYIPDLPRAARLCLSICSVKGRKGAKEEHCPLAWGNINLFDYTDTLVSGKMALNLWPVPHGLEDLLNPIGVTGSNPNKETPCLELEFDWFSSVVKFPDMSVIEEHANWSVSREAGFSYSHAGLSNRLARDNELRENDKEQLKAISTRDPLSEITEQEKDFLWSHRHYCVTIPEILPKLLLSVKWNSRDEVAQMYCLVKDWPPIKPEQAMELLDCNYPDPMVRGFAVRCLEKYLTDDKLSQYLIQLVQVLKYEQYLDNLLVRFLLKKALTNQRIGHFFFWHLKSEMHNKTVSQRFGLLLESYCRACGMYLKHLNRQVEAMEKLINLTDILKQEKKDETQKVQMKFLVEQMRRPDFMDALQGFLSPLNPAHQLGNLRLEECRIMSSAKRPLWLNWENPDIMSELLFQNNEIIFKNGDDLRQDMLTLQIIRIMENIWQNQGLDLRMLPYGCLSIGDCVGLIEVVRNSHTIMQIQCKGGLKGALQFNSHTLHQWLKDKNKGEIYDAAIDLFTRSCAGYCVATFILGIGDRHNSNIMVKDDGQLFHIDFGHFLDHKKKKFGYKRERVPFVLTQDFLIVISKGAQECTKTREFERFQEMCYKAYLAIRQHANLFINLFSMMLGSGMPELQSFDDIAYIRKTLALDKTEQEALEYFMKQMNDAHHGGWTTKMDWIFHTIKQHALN
T1 sequence (P27986 whole entry partner, species assumed): as the sequence (P27986 whole entry partner) above

SMILES	IC50 (PI3K alpha)	IC50 (mTOR)	IC50 (PI3Kδ)	α/δ ratio (PI3Kδ)	β/δ ratio (PI3Kδ)	γ/δ ratio (PI3Kδ)
CC(C)(Cc1ccccc1)Nc1nc(N2CCOCC2)nc(-n2c(C(F)F)nc3ccccc32)n1 [Compound A14, 4-(2-(difluoromethyl)-1H-benzo[d]imidazol-1-yl)-N-(2-methyl-1-phenylpropan-2-yl)-6-morpholino-1,3,5-triazin-2-amine]	> 500 nM	> 500 nM	≤ 100 nM	A’	A’	A’
CC(C)(Cc1ccccc1F)Nc1nc(N2CCOCC2)nc(-n2c(C(F)F)nc3ccccc32)n1 [Compound A15, 4-(2-(difluoromethyl)-1H-benzo[d]imidazol-1-yl)-N-(1-(2-fluorophenyl)-2-methylpropan-2-yl)-6-morpholino-1,3,5-triazin-2-amine]	> 500 nM	> 500 nM	≤ 100 nM	A’	C’	A’
CC(C)(Cc1ccccc1Cl)Nc1nc(N2CCOCC2)nc(-n2c(C(F)F)nc3ccccc32)n1 [Compound A16, 4-(2-(difluoromethyl)-1H-benzo[d]imidazol-1-yl)-N-(1-(2-chlorophenyl)-2-methylpropan-2-yl)-6-morpholino-1,3,5-triazin-2-amine]	> 500 nM	> 500 nM	≤ 100 nM	A’	A’	A’
Cc1ccccc1CC(C)(C)Nc1nc(N2CCOCC2)nc(-n2c(C(F)F)nc3ccccc32)n1 [Compound A18, 4-(2-(difluoromethyl)-1H-benzo[d]imidazol-1-yl)-N-(2-methyl-1-(o-tolyl)propan-2-yl)-6-morpholino-1,3,5-triazin-2-amine]	> 500 nM	> 500 nM	≤ 100 nM	A’	A’	A’
COc1ccccc1CC(C)(C)Nc1nc(N2CCOCC2)nc(-n2c(C(F)F)nc3ccccc32)n1 [Compound A19, 4-(2-(difluoromethyl)-1H-benzo[d]imidazol-1-yl)-N-(1-(2-methoxyphenyl)-2-methylpropan-2-yl)-6-morpholino-1,3,5-triazin-2-amine]	> 500 nM	> 500 nM	≤ 100 nM	–	D’	–
COc1cccc(CC(C)(C)Nc2nc(N3CCOCC3)nc(-n3c(C(F)F)nc4ccccc43)n2)c1 [Compound A21, 4-(2-(difluoromethyl)-1H-benzo[d]imidazol-1-yl)-N-(1-(3-methoxyphenyl)-2-methylpropan-2-yl)-6-morpholino-1,3,5-triazin-2-amine]	> 500 nM	> 500 nM	≤ 100 nM	A’	A’	A’
CC(C)(Cc1ccc(F)cc1)Nc1nc(N2CCOCC2)nc(-n2c(C(F)F)nc3ccccc32)n1 [Compound A22, 4-(2-(difluoromethyl)-1H-benzo[d]imidazol-1-yl)-N-(1-(4-fluorophenyl)-2-methylpropan-2-yl)-6-morpholino-1,3,5-triazin-2-amine]	> 500 nM	> 500 nM	≤ 100 nM	A’	A’	A’
CC(C)(Cc1cccc2ccccc12)Nc1nc(N2CCOCC2)nc(-n2c(C(F)F)nc3ccccc32)n1 [Compound A27, 4-(2-(difluoromethyl)-1H-benzo[d]imidazol-1-yl)-N-(2-methyl-1-(naphthalen-1-yl)propan-2-yl)-6-morpholino-1,3,5-triazin-2-amine]	> 500 nM	> 500 nM	≤ 100 nM	–	C’	–
CC(C)(Cc1ccccc1-c1ccncc1)Nc1nc(N2CCOCC2)nc(-n2c(C(F)F)nc3ccccc32)n1 [Compound A33, 4-(2-(difluoromethyl)-1H-benzo[d]imidazol-1-yl)-N-(2-methyl-1-(2-(pyridin-4-yl)phenyl)propan-2-yl)-6-morpholino-1,3,5-triazin-2-amine]	200 to 500 nM	> 500 nM	≤ 100 nM	–	A’	A’
CN1CCC(c2ccccc2CC(C)(C)Nc2nc(N3CCOCC3)nc(-n3c(C(F)F)nc4ccccc43)n2)CC1 [Compound A35, 4-(2-(difluoromethyl)-1H-benzo[d]imidazol-1-yl)-N-(2-methyl-1-(2-(1-methylpiperidin-4-yl)phenyl)propan-2-yl)-6-morpholino-1,3,5-triazin-2-amine]	> 500 nM	> 500 nM	≤ 100 nM	A’	A’	A’
CC(C)(Cc1cccc(F)c1)Nc1nc(N2CCOCC2)nc(-n2c(C(F)F)nc3ccccc32)n1 [Compound A39, 4-(2-(difluoromethyl)-1H-benzo[d]imidazol-1-yl)-N-(1-(3-fluorophenyl)-2-methylpropan-2-yl)-6-morpholino-1,3,5-triazin-2-amine]	> 500 nM	> 500 nM	≤ 100 nM	A’	–	A’
CC(C)(Cc1ccccc1-c1cccnc1)Nc1nc(N2CCOCC2)nc(-n2c(C(F)F)nc3ccccc32)n1 [Compound A40, 4-(2-(difluoromethyl)-1H-benzo[d]imidazol-1-yl)-N-(2-methyl-1-(2-(pyridin-3-yl)phenyl)propan-2-yl)-6-morpholino-1,3,5-triazin-2-amine]	200 to 500 nM	> 500 nM	≤ 100 nM	A’	A’	A’
COc1cc(-c2ccccc2CC(C)(C)Nc2nc(N3CCOCC3)nc(-n3c(C(F)F)nc4ccccc43)n2)ccn1 [Compound A41, 4-(2-(difluoromethyl)-1H-benzo[d]imidazol-1-yl)-N-(1-(2-(2-methoxypyridin-4-yl)phenyl)-2-methylpropan-2-yl)-6-morpholino-1,3,5-triazin-2-amine]	> 500 nM	> 500 nM	≤ 100 nM	A’	A’	A’
CN1CCC(c2ccccc2CC(C)(C)Nc2nc(N3CCOCC3)nc(-n3c(C(F)F)nc4ccccc43)n2)C1 (stereo not shown) [Compound A75, 4-(2-(difluoromethyl)-1H-benzo[d]imidazol-1-yl)-N-(2-methyl-1-(2-(1-methylpyrrolidin-3-yl)phenyl)propan-2-yl)-6-morpholino-1,3,5-triazin-2-amine]	–	–	≤ 100 nM	A’	B’	A’
